In ChEMBL document CHEMBL2407036, “Flow Synthesis and Biological Studies of an Analgesic Adamantane Derivative That Inhibits P2X7-Evoked Glutamate Release” (ACS Med Chem Lett, 2013):
Activity calls are given as the source filed them. The calls are words filed in the database; no cut-off is given here.

Columns and labels:
Mus musculus [1] = assay: Analgesic activity in Swiss albino mouse assessed as inhibition of acetic acid-induced abdominal contraction at 10 to 60 mg/kg, po measured after 30 mins; format: functional, organism-based; conditions: Abdominal cavity
Mus musculus [2] = assay: Analgesic activity in Swiss albino mouse assessed as inhibition of acetic acid-induced abdominal contraction at 20 to 60 mg/kg, po measured after 30 mins; format: functional, organism-based; conditions: Abdominal cavity
[3] = biological target: T1, P2X purinoceptor 7 (Rattus norvegicus) (UniProt Q64663); assay: Agonist activity at P2X7 in Sprague-Dawley rat synaptosome assessed as [3H]D-aspartate efflux at 100 uM for 120 secs by liquid scintillation counting; conditions: Brain
T1 sequence (whole entry): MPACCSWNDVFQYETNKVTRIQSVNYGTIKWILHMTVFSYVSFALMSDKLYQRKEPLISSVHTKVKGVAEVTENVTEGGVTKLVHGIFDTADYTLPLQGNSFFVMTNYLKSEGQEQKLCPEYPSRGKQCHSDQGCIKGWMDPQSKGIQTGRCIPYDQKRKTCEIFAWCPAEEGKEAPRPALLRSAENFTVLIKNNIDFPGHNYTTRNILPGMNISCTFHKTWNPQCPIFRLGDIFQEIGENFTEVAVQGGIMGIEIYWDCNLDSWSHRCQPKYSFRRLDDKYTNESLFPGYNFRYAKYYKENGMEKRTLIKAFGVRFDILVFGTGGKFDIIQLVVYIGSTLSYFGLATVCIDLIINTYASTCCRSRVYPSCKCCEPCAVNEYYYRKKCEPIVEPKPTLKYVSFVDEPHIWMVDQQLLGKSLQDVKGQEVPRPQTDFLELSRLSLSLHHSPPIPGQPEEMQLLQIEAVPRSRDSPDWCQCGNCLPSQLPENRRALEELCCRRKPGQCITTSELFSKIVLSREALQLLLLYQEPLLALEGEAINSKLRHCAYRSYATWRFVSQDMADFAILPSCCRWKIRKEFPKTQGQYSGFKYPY

Row | SMILES | inhibition (Mus musculus [2]) | further results
1 | N[C@H](c1ccccc1)[C@H](NC(=O)C1(NC(=O)c2ccccc2)C2CC3CC(C2)CC1C3)c1ccccc1 (some centres undefined) |  | inhibition (Mus musculus [1]): Active
2 | C[C@@H](NC(=O)C1(NC(=O)c2ccccc2)C2CC3CC(C2)CC1C3)C(=O)O (some centres undefined) | inactive | 
3 | O=C(NC1(C(=O)NCCc2ccccc2)C2CC3CC(C2)CC1C3)c1ccccc1 (centres undefined) | inactive | 
4 | Nc1ncnc2c1ncn2[C@@H]1O[C@H](COP(=O)(O)OP(=O)(O)OP(=O)(O)O)[C@@H](OC(=O)c2ccc(C(=O)c3ccccc3)cc2)[C@H]1O |  | Activity [3]: Active
